Data from patent publication US11708353B2, “Inhibitors of prolyl-tRNA-synthetase” (The General Hospital Corporation, priority 2018, dated 2023).
Like-named read-outs stand apart in the source and are kept apart here.

Columns and labels:
[1] = tested on: P. falciparum Dd2 wildtype; assay: SYBR Green I asexual blood stage growth assay, Dd2 wildtype; assay type: cell-based; conditions: Plasmodium falciparum
Procedure: (§1) P. falciparum parasite growth was determined using a fluorescence assay based on the SYBR Green I method according to previously reported protocols (see e.g., Johnson et al, Antimicrob. Agents Chemother. 2007, 51(6):1926-1933). P. falciparum parasites were seeded in 384-well plates at 1% hematocrit and 1% starting parasitemia. Growth was assessed by SYBR Green staining of parasite DNA after 72-hour exposure to compound. All dose-response assays were carried out with 12-point dilutions in technical triplicate. Compounds were dispensed with an HP D300 Digital Dispenser (Hewlett Packard, Palo Alto, Calif., USA). Fluorescence intensity measurements were performed on a SpectraMax M5 (Molecular Devices, Sunnyvale, Calif., USA) and analyzed in GraphPad Prism version 7 (GraphPad Software, La Jolla, Calif., USA) after background subtraction and normalization to control wells. EC50 values were determined using a four-parameter nonlinear regression curve fit from at least three assays and are represented as mean±standard deviation. Statistical significance was determined by the Mann Whitney test.

[2] = tested on: eIF2α phosphorylation; conditions: cited from earlier work
[3] = tested on: P. falciparum; conditions: read-out: EC50 against P. falciparum in whole-cell assays; cited from earlier work
[4] = tested on: P. falciparum Dd2 (10× resistence to halofuginone); assay: SYBR Green I asexual blood stage growth assay, Dd2 10x halofuginone-resistant; assay type: cell-based; conditions: Plasmodium falciparum, DD2, 72 h, read-out: P. falciparum Dd2 (10× resistence to halofuginone) Asexual blood stage IC50 (nM)
Procedure: as §1

[5] = tested on: wild-type 3D7 parasites; assay: Antiparasitic activity in wild-type 3D7 parasites; assay type: cell-based; conditions: Plasmodium falciparum, 3D7, read-out: EC50 in wild-type parasites
Procedure: as §1, with “test. […]” for “test.”

[6] = tested on: HFG-tolerant 3D7 parasites; assay: Antiparasitic activity in HFG-tolerant 3D7 parasites; assay type: cell-based; conditions: Plasmodium falciparum, 3D7, read-out: EC50 in HFG-tolerant parasites
Procedure: as §1, with “test. […]” for “test.”

[7] = tested on: P. falciparum Dd2 (>100× resistence to halofuginone); assay: SYBR Green I asexual blood stage growth assay, Dd2 >100x halofuginone-resistant; assay type: cell-based; conditions: Plasmodium falciparum, DD2, 72 h, read-out: P. falciparum Dd2 (>100× resistence to halofuginone) Asexual blood stage IC50 (nM)
Procedure: as §1

[8] = biological target: T1, Plasmodium falciparum cytoplasmic prolyl tRNA synthetase (PfcPRS) (Plasmodium falciparum, UniProt Q8I5R7); assay: Thermal shift (differential scanning fluorimetry) assay; assay type: binding
T1 sequence (Q8I5R7 1-746): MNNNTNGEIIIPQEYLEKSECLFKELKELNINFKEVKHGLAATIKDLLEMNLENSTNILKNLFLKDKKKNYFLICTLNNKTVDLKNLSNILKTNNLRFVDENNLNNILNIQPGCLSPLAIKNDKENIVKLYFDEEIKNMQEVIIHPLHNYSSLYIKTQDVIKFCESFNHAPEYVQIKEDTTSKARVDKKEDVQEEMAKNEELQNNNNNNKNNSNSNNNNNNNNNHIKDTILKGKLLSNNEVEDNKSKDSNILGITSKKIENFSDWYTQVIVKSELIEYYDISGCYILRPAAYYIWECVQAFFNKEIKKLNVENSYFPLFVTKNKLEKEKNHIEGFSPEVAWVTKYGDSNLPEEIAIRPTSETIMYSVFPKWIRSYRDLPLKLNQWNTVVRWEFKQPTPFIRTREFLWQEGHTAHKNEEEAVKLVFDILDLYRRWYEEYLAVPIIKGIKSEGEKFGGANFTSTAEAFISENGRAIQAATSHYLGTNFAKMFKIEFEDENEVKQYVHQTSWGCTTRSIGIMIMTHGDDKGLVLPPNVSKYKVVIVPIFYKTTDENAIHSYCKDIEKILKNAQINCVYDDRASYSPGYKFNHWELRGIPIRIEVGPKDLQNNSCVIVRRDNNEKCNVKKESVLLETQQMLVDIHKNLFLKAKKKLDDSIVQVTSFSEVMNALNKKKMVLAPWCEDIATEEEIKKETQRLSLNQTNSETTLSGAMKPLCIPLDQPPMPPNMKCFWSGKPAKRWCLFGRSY
Procedure: Thermal shift assays were performed in tetricate as previously described (Hewitt et al., 2016). 12.5 μL solutions of 0.14 mg/mL purified recombinant Plasmodium falciparum cytoplasmic prolyl tRNA synthetase (PfcPRS) in a buffer containing […] test compounds (1 mM Compound 18+1 mM Proline; 1 mM Compound 18+0 mM Proline; or DMSO vehicle control), 25 mM HEPES, pH 7.0, 100 mM NaCl, 5 v/v % glycerol, 1 mM TCEP, and optionally 1 mM Proline were incubated at 37° C. for 2 hours in 96 well PCR plates. To this was added 2.5 μL 8× SYRPO Orange Dye (Applied Biosystems 4461141) and 5 μL Protein Thermal Shift Buffer (Applied Biosystems 4461335). Protein stability for protein samples containing the test compounds was compared with apo protein samples by measuring an increase in fluorescence as detected on an Applied Biosystems SDS 7500 Fast qPCR Thermocycler from 25° C. to 99° C. at half degree increments.

[9] = DD2, 72-hour exposure, SYBR Green, read-out: P. falciparum Dd2 wildtype Asexual blood stage EC50

Row | SMILES | EC50 [1, 9] [nM] | also measured
1 | CC(C)(C)OC(=O)NC1(C(=O)Nc2nccnc2C(=O)NC2Cc3ccccc3C2)CCCCC1 [Compound 32] | 9520 | –
2 | CC(C)N(C(=O)Nc1nccnc1C(=O)NC1Cc2ccccc2C1)C(C)C [Compound 8] | 499 | –
3 | Nc1nccnc1C(=O)NCc1ccc(Cl)cc1 [Compound 12] | > 10000 | –
4 | Nc1nccnc1C(=O)NC1CCCCC1 [Compound 29] | > 10000 | –
5 | NC(=O)Nc1nccnc1C(=O)NC1Cc2ccccc2C1 [Compound 26] | 9960 | –
6 | Nc1ncnc2c1ncn2[C@@H]1O[C@H](COS(=O)(=O)NC(=O)[C@@H]2CCCN2)[C@@H](O)[C@H]1O [ProSA, L-prolyl-sulfamoyl adenosine] | – | eIF2α phosphorylation [2]: induces eIF2α phosphorylation; EC50 [3]: 0.097 µM
7 | O=C(C[C@H]1NCCC[C@@H]1OC(=O)NCCCCNC(=O)Nc1nccnc1C(=O)NC1Cc2ccccc2C1)Cn1cnc2cc(Br)c(Cl)cc2c1=O [Compound 2] | > 10000 | –
8 | O=C(O)c1nccnc1C(=O)NC1Cc2ccccc2C1 [Compound 27] | > 10000 | –
9 | CN1CCN(C(=O)Nc2nccnc2C(=O)NC2Cc3ccccc3C2)CC1 [Compound 10] | 1830 | –
10 | O=C(CCCC(=O)NC1(C(=O)Nc2nccnc2C(=O)NC2Cc3ccccc3C2)CCCCC1)NCCOCCOCCNC(=O)COc1cccc2c1C(=O)N(C1CCC(=O)NC1=O)C2=O (stereo not drawn) [Compound 33] | – | EC50 ([1]; DD2, 72 h, read-out: P. falciparum Dd2 wildtype Asexual blood stage EC50 (nM)): 8540 nM
11 | NCCCCNC(=O)Nc1nccnc1C(=O)NC1Cc2ccccc2C1 [Compound 1] | > 10000 | –
12 | O=C(O)CCCC(=O)Nc1nccnc1C(=O)NC1Cc2ccccc2C1 [Compound 5] | > 10000 | –
13 | O=C(Nc1nccnc1C(=O)NC1Cc2ccccc2C1)NC12CC3CC(CC(C3)C1)C2 [Compound 39] | > 10000 | –
14 | CC(C)(C)OC(=O)N1CCC[C@H]1C(=O)NCCCCNC(=O)Nc1nccnc1C(=O)NC1Cc2ccccc2C1 [Compound 3] | > 10000 | –
15 | O=C(NC1Cc2ccccc2C1)c1nccnc1NC(=O)C1CCCCC1 [Compound 16] | 544 | IC50 [4]: 1160 nM
16 | O=C(NC1Cc2ccccc2C1)c1nccnc1NC(=O)N1CCCCC1 [Compound 18] | 63 | EC50 [5]: 0.078 µM; EC50 [6]: 0.13 µM; IC50 [7]: 74 nM; Binding mode to PfcPRS relative to proline [8]: binds PfcPRS in proline-uncompetitive fashion; Effect of proline on binding to PfcPRS (differential scanning fluorimetry) ([8]; with 1 mM vs 0 mM Proline, FIG. 3C): Pro potentiates Compound 18 binding to PfcPRS; IC50 [4]: 130 nM
17 | CN(C(=O)c1nccnc1N)C1Cc2ccccc2C1 [Compound 38] | > 10000 | –
18 | O=C(NCCCCNC(=O)[C@@H]1CCCN1)Nc1nccnc1C(=O)NC1Cc2ccccc2C1 [Compound 4] | > 10000 | –
19 | CNc1nccnc1C(=O)NC1Cc2ccccc2C1 [Compound 31] | > 10000 | –
20 | C[C@@H]1CCC[C@H](C)N1C(=O)Nc1nccnc1C(=O)NC1Cc2ccccc2C1 [Compound 14] | 73 | –
21 | O=c1[nH]c2nccnc2c(=O)n1C1Cc2ccccc2C1 [Compound 25] | > 10000 | –
22 | Nc1nccnc1C(=O)NC1Cc2ccccc2C1 [Compound 15] | > 10000 | –
23 | O=C(Nc1nccnc1C(=O)NC1Cc2ccccc2C1)c1ccccc1 [Compound 24] | > 10000 | –

More lines, main results first:

Row | EC50 [1, 9] [nM] | SMILES | also measured
24 | 4940 | O=C(NC1Cc2ccccc2C1)c1nccnc1NC(=O)N(C1CCCCC1)C1CCCCC1 [Compound 13] | –
25 | 9540 | O=C(NC1CCCCC1)c1nccnc1NC(=O)C1Cc2ccccc2C1 [Compound 30] | –
26 | 8270 | O=C(NC1Cc2ccccc2C1)c1nccnc1NC(=S)NC1CCCCC1 [Compound 35] | –
27 | > 10000 | O=C(Nc1nccnc1C(=O)NC1Cc2ccccc2C1)NC1CCCCC1 [Compound 36] | –
28 | 1350 | O=C(NC1Cc2ccccc2C1)c1nccnc1NC(=O)C1(O)CCCCC1 [Compound 21] | –
29 | > 10000 | O=C(NC1CCCCC1)c1nccnc1C(=O)NC1Cc2ccccc2C1 [Compound 28] | –
30 | 386 | CC(C)(C)OC(=O)N[C@H]1CC[C@@H](C(=O)Nc2nccnc2C(=O)NC2Cc3ccccc3C2)CC1 [Compound 23] | –
31 | 3540 | O=C(NC1Cc2ccccc2C1)c1nccnc1NC(=O)C1CCC1 [Compound 9] | –
32 | 173 | CC1(C(=O)Nc2nccnc2C(=O)NC2Cc3ccccc3C2)CCCCC1 [Compound 19] | –
33 | 627 | O=C(NC1Cc2ccccc2C1)c1nccnc1N(C(=O)C1CCCCC1)C(=O)C1CCCCC1 [Compound 22] | –
34 | > 10000 | O=C(NC1Cc2ccccc2C1)c1nccnc1NCC1CCCCC1 [Compound 37] | –
35 | 2990 | O=C(NC1Cc2ccccc2C1)c1nccnc1NC(=O)C1CCCCN1 (stereo not drawn) [Compound 7] | –
36 | 6200 | O=C(NC1Cc2ccccc2C1)c1nccnc1NC(=O)N1CCCC(C(=O)O)C1 (stereo not drawn) [Compound 11] | –
37 | > 10000 | O=C(NC1Cc2ccccc2C1)c1nccnc1NS(=O)(=O)C1CCCCC1 [Compound 17] | –
38 | 4840 | NC1(C(=O)Nc2nccnc2C(=O)NC2Cc3ccccc3C2)CCCCC1 [Compound 34] | –
39 | > 10000 | O=C(NC1Cc2ccccc2C1)c1nccnc1NC(=O)C1CCOCC1 [Compound 20] | –
40 | 3790 | CC(C)(C)OC(=O)N1CCCCC1C(=O)Nc1nccnc1C(=O)NC1Cc2ccccc2C1 (stereo not drawn) [Compound 6] | –
